Like-named read-outs stand apart in the source and are kept apart here.
What was measured:
[1] = Kinetic solubility by UV spectrometry; assay type: physicochemical; conditions: PBS 50 mM, aqueous buffer, kinetic from dmso stock
Method: A modified protocol was used from that described by Hoelke et al. for the determination of the kinetic solubility from DMSO compound solutions. A compound calibration curve (compound concentration vs UV absorption) was prepared for each compound with concentrations of 10, 20, 50, 100, and 200 µM. Each compound dilution was carried out by pipetting defined volumes of a 20 mM stock compound solution in DMSO into vials and adding PBS 50 mM to reach a final volume of 1 mL/well. The final amount of DMSO per well was 2%. For the lower compound concentrations, an additional volume of DMSO was added to each well to reach 2% DMSO. Then, 200 µL of each dilution was transferred to a new 96-well culture plate for the measurement of the UV-spectra. One well in each row was left without a compound as a blank, and its UV absorbance was used as an offset correction. The experiments were performed in duplicate.
In parallel, compound saturation solutions were reached and filtered from 20 mM compound stock in DMSO: 10 µL of a 20 mM stock solution was dispensed into 190 µL of PBS 10 mM. The solutions were mixed, shaken on a microplate shaker for two hours, and then 160 µL of each solution was filtered and transferred to a new well plate for UV absorption measurement.
Measurement of the UV-spectra was performed using a Varioskan microplate reader, and spectra were taken in the range of 270–600 nm. Spectral bandwidth was set to 5 nm, and the data pint interval was 10 nm. The experiments were carried out in triplicate.

HepG2 cells = experiment: Cytotoxicity, MTT assay, HepG2; assay type: cell-based; conditions: Homo sapiens
Method: (§1) All compounds tested were dissolved and eventually further diluted in dimethylsulfoxide (DMSO). After overnight incubation, the cells were treated with different compound concentrations (5, 10, 20, 50, 100, 150, 200 µM) in a final volume of 200 µL with four replicates each. […] Cell proliferation or viability was measured using the 3-(4,5-dimethylthiazol-2-yl)-2,5-diphenyl tetrazolium bromide (MTT) assay. The MTT assay was optimized taking into account the number of cells plated per well, to work in the linear part of the cell density vs. MTT absorbance calibration curve, which allows achieving a maximum absorbance in the range of 0.8–1.0 in each well at the end of the experiment. In addition to that, the number of cells seeded for each experiment was optimized in agreement with the time scale of the experiment.
(§2) After cell treatment, 20 µL of MTT (5 mg/mL) was added to each well, and the plate was incubated at 37 °C in the dark for 2 h. Supernatants were removed, and the formazan crystals were solubilized in DMSO (200 µL/well), under 10 min shaking at room temperature. The reduction of MTT was quantified by absorbance at 570 nm in a Varioskan microplate reader (Thermo Fisher Scientific, Vantaa, Finland). Effects of the test compounds on cell viability were calculated using cells treated with a vehicle as a control. For IC50 and LD50 calculations, the data were subjected to linear regression analysis, and the regression lines were plotted for the best fit. The IC50 (inhibition of cell viability) concentrations were calculated using the respective dose–response curves.

[2] = ABTS radical scavenging assay; assay type: biochemical; conditions: for IC50: 30-min incubation; for ABTS Assay TEAC50: Equivalent antioxidant capacity at Trolox 50 mM; for ABTS Assay TEAC100: Equivalent antioxidant capacity at Trolox 100 mM
Method: The mixture was stored in the dark at room temperature for 16 h. […] All the compounds tested were dissolved in EtOH. […] The degree of decolorization was calculated as the percentage reduction of absorbance. […] Trolox was used as a reference antioxidant.

SH-SY5Y cells = experiment: Cytotoxicity, MTT assay, SH-SY5Y; assay type: cell-based; conditions: Homo sapiens, read-out: SH-SY5Y IC50
Method: as §1, §2

[3] = Ferric reducing antioxidant power (FRAP) assay; assay type: biochemical; set-up: FRAP Assay Trolox Equivalents: unit not given here; conditions: for FRAP Assay Antioxidant Capacity (%) at 100 uM: compound at 100 uM; for FRAP Assay Antioxidant Capacity (%) at 200 uM: compound at 200 uM
Method: FRAP reagent was prepared by mixing 10 mL of 300 mM acetate buffer with 1 mL of 10 mM 2,4,6-tripyridyl-S-triazine (TPTZ) in HCl 40 mM and 1mL of FeCl3·6H2O 20 mM. […] Trolox was used as assay control.

[4] = HepG2, MTT, cytotoxicity, read-out: HepG2 IC50

Row | Compound | solubility [1] [µM] | IC50 (HepG2 cells; HepG2, read-out: HepG2 IC50) [µM] | IC50 [2] [µM] | IC50 (SH-SY5Y cells) [µM] | FRAP Assay Trolox Equivalents [3] | FRAP Assay Antioxidant Capacity (%) at 100 uM [3] [%] | FRAP Assay Antioxidant Capacity (%) at 200 uM [3] [%] | melting point [°C] | IC50 (HepG2 cells; [4]) [µM] | IC50 (SH-SY5Y cells; MTT, cytotoxicity) [µM] | ABTS Assay TEAC50 [2] | ABTS Assay TEAC100 [2]
1 | CN1C(=O)CC(c2ccccc2)=Nc2cc(F)ccc21 [Compound 14, 7-Fluoro-1-methyl-4-phenyl-1H-1,5-benzodiazepin-2(3H)-one] | > 200 | 233 ± 18.7 | > 1000 | 220 ± 27.9 | 0.01 | 0.3 | 0.6 | 107.7 |  |  |  | 
2 | CN1C(=O)CC(c2ccccc2)=Nc2cc(F)cc(F)c21 [Compound 16, 7,9-Difluoro-1-methyl-4-phenyl-1H-1,5-benzodiazepin-2(3H)-one] | > 200 |  | > 1000 |  | 0.00 | 0 | 0 |  | > 250 | > 250 |  | 
3 | CC1=Nc2c(F)c(F)c(F)c(F)c2NC(=O)C1 [Compound 1, 6,7,8,9-Tetrafluoro-4-methyl-1H-1,5-benzodiazepin-2(3H)-one] | > 200 |  | 576 ± 40 |  | 0.01 | 0.5 | 0.5 | 155.2 | > 250 | > 250 | 0.33 | 0.16
4 | O=C1CC(c2ccccc2)=Nc2cc(F)cc(F)c2N1 [Compound 15, 7,9-Difluoro-4-phenyl-1H-1,5-benzodiazepin-2(3H)-one] | < 10 |  | 496 ± 82 |  | 0.07 | 3.8 | 6.2 |  | > 250 | > 250 | 0.34 | 0.15
5 | Cc1c(C)c2c(c(C)c1O)CCC(C)(C(=O)O)O2 (centres unmarked) [Trolox, reference compound] |  |  | 25.1 ± 1.2 |  | 1 | 51.3 | 100 |  |  |  | 1 | 1
6 | CN1C(=O)CC(c2ccccc2)=Nc2ccccc21 [Compound 19, 1-Methyl-4-phenyl-1H-1,5-benzodiazepin-2(3H)-one] | > 200 | > 250 | > 1000 | 201 ± 27 | 0.03 | 1.7 | 3.5 |  |  |  |  | 
7 | CN1C(=O)CC(c2ccccc2)=Nc2c(F)c(F)c(F)c(F)c21 [Compound 4, 6,7,8,9-tetrafluoro-4-phenyl-1-methyl-1H-1,5-benzodiazepin-2(3H)-one] |  |  | > 1000 |  | 0.02 | 1.1 | 1.3 | 133.7 | > 250 | > 250 |  | 
8 | CN1C(=O)CC(c2ccccc2)=Nc2ccc(F)cc21 [Compound 12, 8-Fluoro-1-methyl-4-phenyl-1H-1,5-benzodiazepin-2(3H)-one] | > 200 | 230 ± 25.5 | > 1000 | 240 ± 24.9 | 0.02 | 0.8 | 1.4 |  |  |  |  | 
9 | COc1cc(C2=Nc3cc(Cl)c(Cl)cc3NC(=O)C2)cc(OC)c1OC [Compound 23, 7,8-Dichloro-4-(3,4,5-trimethoxyphenyl)-1H-1,5-benzodiazepin-2(3H)-one] | < 20 |  | > 500 |  | 0.03 | 2.7 | 4.6 | 246 |  | > 250 |  | 
